According to paper PMC8327158, “PEGylated AdipoRon derivatives improve glucose and lipid metabolism under insulinopenic and high-fat diet conditions” (Journal of Lipid Research, 2021):

Experiments:
HFD-fed mice = experiment: qPCR gene expression in pancreas, BAT and scWAT of HFD mice; assay type: in vivo, mouse
Method: Total RNA was extracted with the RNeasy Mini kit (Qiagen #74106) for the pancreas or Trizol (Invitrogen #15596018) for the liver and adipose tissue. cDNA was synthesized with iScript cDNA Synthesis Kit (Bio-Rad #170-8891). Quantitative real-time PCR (qPCR) was performed with the Powerup SYBR Green PCR master mix (Applied Biosystems # A25742) on Quantistudio 6 Flex Real-Time PCR System (Applied Biosystems #4485694). Primer sequences for qPCR are listed in supplemental Table S2.
(§1) Six-week-old wild-type male mice were fed HFD for 4 weeks or 7 months In total, 5 mg/Kg of PBS, Adiporon, AdipoRonPEG5, AdipoRonPEG6HTL were injected twice a day for 5 days. After 5 days of treatment, systemic test is performed, and serum (Before and after treatment), subcutaneous, epididymal, liver, heart samples were harvested for qPCR and sphingolipid analysis.

HFD-fed wild-type mice = experiment: Food intake, body weight, ITT and OGTT in mice on HFD for 7 months; assay type: in vivo, mouse; conditions: HFD 7 months, 5 mg/kg twice a day for 5 days
Method: For oral glucose tolerance test (OGTT), mice were fasted for 4–6 h and subjected to an oral gavage of dextrose (2 mg/g body weight). Tail blood was collected at 0, 15, 30, 60, and 120 min and prepared for serum and assayed for glucose and insulin. For insulin tolerance test (ITT), insulin (0.75 U/kg Humulin R; Eli Lilly, Indianapolis, IN) was administered under fed condition. Serum glucose level was measured at 0, 15, 30, 60, and 90 min time point. Triglyceride tolerance test (TGTT) was initiated by oral gavage of 20% Intralipid (10 μl/g BDW, l141-100 ml, Sigma), and serum was collected at 0, 1, 1.5, 3, and 6 h for triglyceride assay. Glucose, insulin, and triacylglyceride levels were measured using an oxidase-peroxidase assay (Sigma P7119), insulin ELISA (Crystal Chem, Elk Grove village, IL, #15596018), and Infinity Triglycerides Reagent (Thermo Fisher Scientific TR22421).
as §1

Question: What does the source list for `O=C(COc1ccc(C(=O)c2ccccc2)cc1)NC1CCN(Cc2ccc(OCCOCCOCCOCCOCCO)cc2)CC1` [AdipoRonPEG5]?
Answer: Cpt-1a expression (HFD-fed mice; BAT): increased expression; Prdm16 expression (HFD-fed mice; BAT): significant upregulation; fibrosis-related genes (Col1a1, Col3a1, Fn1) and Tgfb1 (HFD-fed mice; subcutaneous adipose tissue): lowered; genes maintaining the functional state of pancreatic β-cells (HFD-fed mice; whole pancreas lysate): did not detect a significant upregulation; blood glucose levels in ITT (HFD-fed wild-type mice): significant reduction; blood glucose levels in OGTT (HFD-fed wild-type mice): not altered; blood insulin levels in OGTT (HFD-fed wild-type mice): reduction of blood insulin levels; food intake or body weight (HFD-fed wild-type mice): no significant impact
